Laboratory results: PMC9454089, “Structural and Mechanistic Evidence for Calcium Interacting Sites in the HIV Transmembrane Protein gp41 Involved in Membrane Fusion” (Biochemistry, 2022)
Read-outs that look alike come from different tables or passages of the source. Residues, ends and D or L forms follow the SMILES beside them.

Tested on: gp41 mediated cell–cell fusion (HXB2 strain HIV-1 Env; HL2-3 / TZM-bl cells)
Format: cell-based
Conditions: Figure 3, TZM-bl target and HL2/3 effector cells, 6 h coculture at 37 °C, luciferase, average ± S.E.M., n = 3, read-out: IC50, inhibition of cell–cell fusion
Protocol: Effector cells were the Env expressing cells HL2-3, a HeLa-derived cell line which constitutively expresses the HXB2 strain of the HIV-1 Env glycoprotein along the Tat protein, and as target cells, TZM-bl cells were used. The fusion of HL2-3 cells with TZM-bl cells was assessed through luciferase expression. The TZM-bl cells were seeded at 2 × 10^4 cells/well overnight in 96-well plates. The medium was then aspirated from each well and replaced with serum-free DMEM containing 40 μg/mL DEAE-dextran. […] Upon addition of the peptides, the HL2-3 cells were added to the TZM-bl cells in serum-free DMEM containing 40 μg/mL DEAE-dextran at a 1:1 cell ratio. The cells were cocultured at 37 °C for 6 h to allow the fusion to occur. Luciferase activity was analyzed using the Steady-Glo luciferase assay kit (Promega). Fitting of the data points was performed according to the following equation, derived from Hills’ equation [drawing 1]
For the fitting, we uploaded the X and Y values of the data into a nonlinear least-square regression (curve fitter) program that provided the IC50 value (parameter A).
A one-tailed Student’s T-test was used. P < 0.05 was considered significant. Analyses were done using GraphPad Prism (data analysis software) version 6.05 (*P ≤ 0.05, **P ≤ 0.01, and ***P ≤ 0.001).

Structure (SMILES)	IC50 (0 mM Ca2+) [nM]	IC50 (2 mM Ca2+) [nM]	IC50 (5 mM Ca2+) [nM]
CC[C@H](C)[C@H](NC(=O)[C@H](CCC(=O)O)NC(=O)[C@H](CCCNC(=N)N)NC(=O)[C@H](C)NC(=O)[C@H](Cc1c[nH]c2ccccc12)NC(=O)[C@H](CCC(=O)O)NC(=O)[C@H](CCSC)NC(=O)[C@@H](N)Cc1c[nH]c2ccccc12)C(=O)N[C@@H](CC(N)=O)C(=O)N[C@@H](CC(N)=O)C(=O)N[C@@H](Cc1ccc(O)cc1)C(=O)N[C@H](C(=O)N[C@@H](CO)C(=O)N[C@@H](CC(C)C)C(=O)N[C@H](C(=O)N[C@@H](Cc1c[nH]cn1)C(=O)N[C@@H](CO)C(=O)N[C@@H](CC(C)C)C(=O)N[C@H](C(=O)N[C@@H](CCC(=O)O)C(=O)N[C@@H](CCC(=O)O)C(=O)N[C@@H](CO)C(=O)N[C@@H](CCC(N)=O)C(=O)N[C@@H](CC(N)=O)C(=O)N[C@@H](CCC(N)=O)C(=O)N[C@@H](CCC(N)=O)C(=O)N[C@@H](CCC(=O)O)C(=O)N[C@@H](CCCCN)C(=O)N[C@@H](CC(N)=O)C(=O)N[C@@H](CCC(=O)O)C(=O)N[C@@H](CCC(N)=O)C(=O)N[C@@H](CCC(=O)O)C(=O)N[C@@H](CC(C)C)C(=O)N[C@@H](CC(C)C)C(N)=O)[C@@H](C)CC)[C@@H](C)CC)[C@@H](C)O [C34 D-A]	0.6 ± 0.4	1.5 ± 0.7	
CC[C@H](C)[C@H](NC(=O)CNC(=O)[C@H](Cc1c[nH]c2ccccc12)NC(=O)[C@@H](NC(=O)[C@@H](NC(=O)[C@H](CC(C)C)NC(=O)[C@H](CCC(N)=O)NC(=O)[C@H](CC(C)C)NC(=O)[C@H](CC(C)C)NC(=O)[C@H](C)NC(=O)[C@H](CCC(N)=O)NC(=O)[C@H](CCC(N)=O)NC(=O)[C@H](C)NC(=O)[C@H](C)NC(=O)[C@@H](NC(=O)[C@H](C)NC(=O)[C@H](C)NC(=O)[C@H](CC(C)C)NC(=O)[C@H](CC(C)C)NC(=O)[C@H](CC(N)=O)NC(=O)[C@H](CC(N)=O)NC(=O)[C@H](CCC(N)=O)NC(=O)[C@H](CCC(N)=O)NC(=O)[C@H](CCC(N)=O)NC(=O)[C@@H](NC(=O)[C@@H](NC(=O)CNC(=O)[C@@H](N)CO)[C@@H](C)CC)C(C)C)[C@@H](C)CC)[C@@H](C)O)C(C)C)C(=O)N[C@@H](CCCCN)C(=O)N[C@@H](CCC(N)=O)C(=O)N[C@@H](CC(C)C)C(=O)N[C@@H](CCC(N)=O)C(=O)N[C@@H](C)C(=O)N[C@@H](CCCNC(=N)N)C(=O)N[C@H](C(=O)N[C@@H](CC(C)C)C(N)=O)[C@@H](C)CC [N36 3A] (H-SGIVQQQNNLLAAIAAQQALLQLTVWGIKQLQARIL-NH2)	2980 ± 1070	262 ± 180	800 ± 140
